Reference: patent publication US20060079453A1, “Hla binding peptides and their uses” (priority 2002, published 2006)
Where two headings read alike, the source gives them in different places. No end group written: not given here.

Assays:
Assay in all cases: biochemical
Format in all cases: binding
[1] = target: HLA-A*0206 (Homo sapiens, UniProt P04439, D140Y/D185E/D98H/E176V/E277Q/F33Y/G131W/G231S/I119V/I121R/I166T/I218V/L300P/L318F/N151K/N90K/P208A/P217A/Q86G/Q94H/R138H/R169H/T345S)
[2] = target: HLA-A*0202 (Homo sapiens, UniProt P04439, D140Y/D185E/D98H/E176V/E277Q/G131W/G231S/I119L/I121R/I166T/I218V/L180W/L300P/L318F/N151K/N90K/P208A/P217A/Q67R/Q86G/Q94H/R138H/R169H/T345S)
[3] = target: HLA-A*0203 (Homo sapiens, UniProt P04439, A173T/D140Y/D185E/D98H/E277Q/G131W/G231S/I119V/I121R/I166T/I218V/L180W/L300P/L318F/N151K/N90K/P208A/P217A/Q86G/Q94H/R138H/R169H/T345S)
[4] = target: HLA-A*0201 (Homo sapiens, UniProt P04439, D140Y/D185E/D98H/E176V/E277Q/G131W/G231S/I119V/I121R/I166T/I218V/L300P/L318F/N151K/N90K/P208A/P217A/Q86G/Q94H/R138H/R169H/T345S)
[5] = target: HLA-A*6802 (Homo sapiens, UniProt P04439, A269V/D140Y/D185E/E176V/E277Q/E87N/F33Y/G231S/I121R/I166T/I218V/L180W/L300P/L318F/N151K/P208A/P217A/Q86R/R138H/R169H/S129P/T345S/V36M)
[6] = A*0206 binding affinity (expressed as an IC50)
[7] = A*0202 binding affinity (expressed as an IC50)
[8] = A*0203 binding affinity (expressed as an IC50)
[9] = A*0201 binding affinity (expressed as an IC50)
[10] = A*6802 binding affinity (expressed as an IC50)

In the case of ILWQVDRM, the IC50 [1] is reported as 11300 nM, the IC50 [2] is reported as 67 nM and the IC50 [3] is reported as 3000 nM. For the same sequence, the IC50 [4] was 1750 nM and the IC50 [5] was greater than 19500 nM.
KISAVVGIL was tested, and the IC50 [1, 6] was 1750 nM, the IC50 [2, 7] was 42 nM and the IC50 [3, 8] was 60 nM. For the same sequence, the IC50 [4, 9] was 6240 nM and the IC50 [5, 10] was 4950 nM.
In the case of KITPLCVTL, the IC50 [1, 6] is reported as 59 nM, the IC50 [2, 7] is reported as 36 nM and the IC50 [3, 8] is reported as 528 nM. For the same sequence, the IC50 [4, 9] was 461 nM and the IC50 [5, 10] was 883 nM.
Sequence KLTPFCVTL has an IC50 [1] of 78 nM, an IC50 [2] of 0.37 nM and an IC50 [3] of 28 nM. It also gave an IC50 [4] of 87 nM and an IC50 [5] of 11800 nM.
Sequence KLTPLCVSL has an IC50 [1, 6] of 16 nM, an IC50 [2, 7] of 2.4 nM and an IC50 [3, 8] of 240 nM. The IC50 [4, 9] was 67 nM and the IC50 [5, 10] was 5950 nM.
Work on LIFHFFLFLL yielded an IC50 [1, 6] of 1560 nM, an IC50 [2, 7] of 1470 nM and an IC50 [3, 8] of 3170 nM. For the same sequence, the IC50 [4, 9] was 200 nM and the IC50 [5, 10] was 460 nM.
LLGPGPGV gave an IC50 [1, 6] of 93 nM, an IC50 [2, 7] of 49 nM and an IC50 [3, 8] of 123 nM. The IC50 [4, 9] was 25 nM and the IC50 [5, 10] was 5620 nM.
In the case of LLLPPLERLTL, the IC50 [1] is reported as 45 nM, the IC50 [2] is reported as 2610 nM and the IC50 [3] is reported as 9010 nM. The IC50 [4] was 34 nM and the IC50 [5] was greater than 12800 nM.
Sequence LLWQPIPV has an IC50 [1, 6] of 4250 nM, an IC50 [2, 7] of 2440 nM and an IC50 [3, 8] of 9.9 nM. For the same sequence, the IC50 [4, 9] was 137 nM and the IC50 [5, 10] was 32900 nM.
LQLPPLERLTV gave an IC50 [1] of 52 nM, an IC50 [2] of 4540 nM and an IC50 [3] of 6270 nM. The IC50 [4] was 159 nM and the IC50 [5] was greater than 61100 nM.
Sequence LTFGWCFKV has an IC50 [1] of 187 nM, an IC50 [2] of 33 nM and an IC50 [3] of 1170 nM. For the same sequence, the IC50 [4] was 15 nM and the IC50 [5] was 9.7 nM.
Sequence MLLSVPLLL has an IC50 [1, 6] of 8.4 nM, an IC50 [2, 7] of 79 nM and an IC50 [3, 8] of 41 nM. It also gave an IC50 [4, 9] of 9 nM and an IC50 [5, 10] of 24600 nM.
With MMIMIKFMGV the IC50 [1, 6] was 109 nM, the IC50 [2, 7] was 19 nM and the IC50 [3, 8] was 25 nM. For the same sequence, the IC50 [4, 9] was 123 nM and the IC50 [5, 10] was 39 nM.
MTGNPPVPV was tested, and the IC50 [1, 6] was 35 nM, the IC50 [2, 7] was 158 nM and the IC50 [3, 8] was 23 nM. The IC50 [4, 9] was 2020 nM and the IC50 [5, 10] was 0.84 nM.
With MTGNPSIPV the IC50 [1] was 257 nM, the IC50 [2] was 1.1 nM and the IC50 [3] was 0.43 nM. It also gave an IC50 [4] of 16 nM and an IC50 [5] of 0.57 nM.
